Measured values as given in PMC6328429, “Synthesis of a benzoxazinthione derivative of tanaproget and pharmacological evaluation for PET imaging of PR expression” (EJNMMI Radiopharmacy and Chemistry, 2019).
“And” between values parts separate entries of the source, which are not always exact repeats. Equal values may be shown once. “Also recorded” adds a separate entry of the source. Read-outs that look alike come from different tables or passages of the source.

Key:
[1] = Dynamic PET/CT imaging in C57BL/6 female mice; assay type: in vivo; details: PET images acquired over 50 min
Experimental: Mice were anaesthetised with 3–5% isoflurane at a flow rate of 1 L/min, and then reduced to 1.5–2% isoflurane for anaesthesia maintenance during imaging. [^18F]2 was injected via the tail vein at the commencement of a dynamic PET scan using a dedicated small animal PET/CT scanner (Sedecal SuperArgus2R, Sedecal, Spain). Images were acquired over a 50 min imaging sequence, followed by CT imaging acquired in 514 projections for anatomic coregistration. PET emission data were corrected for decay and dead time and reconstructed using 3D-OSEM. Data were analysed based on regions of interest (ROI) drawn within the tumours and tissue. Time-activity curves (TAC) were calculated as an average form the region of interest analysis of three mice (Additional file 1: Figure S34). Data was analysed using AMIDE software (Loening and Gambhir, [2003]) and VivoQuant (InVicro, MA, USA) and regions of interest (ROIs) were selected by hand, and the count densities were averaged for each frame to obtain a TAC for each ROI.

T47D cells = assay: Cell uptake study of radioligand in breast cancer cell lines; assay type: cell-based, human
Experimental: T47D, MCF-7 and MDA-MB-231 cells (1 × 10^5) were plated into 6-well plates and used for receptor binding assays at 60–80% confluence. Cell medium was removed and cells were washed with cold PBS buffer. [^18F]2 (37 kBq/mL) was added to individual wells and cells were incubated at 37 °C in a humidified atmosphere of 5% CO2 for 60 min. Cells were co-incubated with 0.01–1 μM of cold progesterone for the blocking study. Cells were then washed 3 times with ice-cold PBS and lysed with RIPA buffer. Radioactivity was determined using a gamma spectrometer (Automatic Gamma counter, Wizard 3 Wallac). Radioactivity was normalised to protein content determined using a BCA 96-well plate assay (Thermo Fisher Scientific Inc., USA) and expressed as a percentage of total radioactivity per mg of protein.

[2] = In vitro radioactive metabolite analysis in mouse liver microsomes; assay type: in vitro ADME; details: MLM, 60 min, radio-HPLC integration
Experimental: Radioligand [^18F]2 (3 MBq, ca. 80 μL), mouse liver microsomes (50 μL, 1 mg/mL), NADPH regeneration system A (50 μL), NADPH regeneration system B (10 μL), PBS 0.5 M pH 7.5 (200 μL) and water (ca. 200 μL) were added to a plastic 1.5 mL tube. The mixture was incubated at 37 °C for 60 min and transferred into a plastic centrifuge tube (10 mL). Proteins were precipitated with ice-cold MeOH (2 mL) and the mixture was centrifuged (12,000 g, 3 min) to pellet the precipitate. The supernatant was removed, evaporated to dryness and the residue was suspended in 37% MeCN + 0.1%TFA / 63% Water + 0.1%TFA for RP-HPLC using gradient 3 (supporting information, section 10.3). The experiment was performed in n = 3 determinations. Extraction efficiency of radioactivity from the protein pellet was calculated to be 93.5% ± 1.6 (Additional file 1: Table S3). HPLC data is shown in the supporting information (Additional file 1: Figure S35).

[3] = Distribution coefficient analysis (LogD7.4), n-octanol/PBS; assay type: physicochemical
Experimental: Radioligand [^18F]2 (0.03 MBq, 1 μL, in EtOH) was mixed with PBS (500 μL) and n-octanol (500 μL). The sample was vortexed (10 min) followed by centrifugation (1×g, 10 min). Three aliquots (100 μL) from each layer were taken and counts measured using a 2480 WIZARD2 Automatic Gamma Counter (PerkinElmer, UK). Experiment was repeated in triplicate in n = 3 determinations (supporting information, Additional file 1: Table S1). Distribution coefficient (LogD7.4) was calculated as the logarithm of the ratio between CPM of the octanol and buffer phase.

[4] = Ex vivo biodistribution in C57BL/6 female mice; details: 50 min p.i.
Experimental: Pubertal female C57BL/6 mice were injected intraperitoneally with 30 IU gonadotropins, 15 IU Follicle-stimulating hormone (FSH) and 15 IU luteinizing hormone (LH) followed by 5 IU […] (hCG) after 48 h (Sigma-Aldrich, Gillingham, UK). After the imaging studies, the ovaries were removed and snap-frozen in liquid nitrogen for later analysis of protein expression by western blot.
[^18F]2 (455 ± 62 kBq) was injected into the tail vail of female C57BL/6 mice. Whilst under anaesthesia the animals were sacrificed and tissues of interest such as, heart, lung, liver, spleen, kidneys, stomach, muscle, bone, ovary, small intestines and large intestines were collected in pre-weighed counting tubes. Radioactivity within tissue samples was counted in a gamma spectrometer (Automatic Gamma Counter, Wizard 3 Wallac), and then weighed to determine the mass of the tissue. CPM for each tissue sample was normalised to the total injected dose of radioactivity to the animal to give %ID (injected dose), and then normalised to the weight of the counted tissue to give the radioactivity uptake of the tissue as %ID/g. Tabulated values shown in Additional file 1: Table S2.

[5] = Stability of formulated radioligand; assay type: physicochemical; details: up to 4 h after formulation; 10% (v/v) EtOH/PBS
[6] = PR-induced (PR+, gonadotropin stimulated) mice, mean ± SEM

CC1(C)OC(=S)Nc2ccc(-c3cccnc3[18F])cc21 [[^18F]2]
Distribution of radioactivity in PET images [1]: Extensive skeletal uptake; also recorded: accumulation of radioactivity in the liver and small intestines, but also in the spine, joints and skull
Uptake of radioligand in cell lines (T47D cells; T47D (PR++) compared to MCF7 (PR+) and MDA-MB-231 (PR-), 60 min, 37 °C): significant accumulation in T47D cells
Uptake in T47D cells on co-incubation with progesterone (blocking) (T47D cells; T47D cells, progesterone 0.01–0.1 μM): decreased in a dose-dependent manner
[^18F]2 parent (Rt = ca 12:21 min:sec), single run ([2]; individual runs / representative chromatogram): 33.3% and 36.3% and 36.6%
[^18F]2 parent (Rt = ca 12:21 min:sec), mean ± SD ([2]; n = 3): 35.4 ± 1.8%
logD ([3]; pH 7.4, PBS (pH 7.4) / octan-1-ol, three repeats in triplicate, read-out: Distribution coefficient (LogD7.4), mean ± SD): 1.69 ± 0.1
logD ([3]; pH 7.4, single measurements (Run 1-3, a-c), read-out: LogD7.5): 1.67
Bone uptake ratio, gonadotropin-stimulated vs control mice [4]: 2 fold
Biodistribution, blood [4, 6]: 1.30 ± 0.30 %ID/g
Biodistribution, bone [4, 6]: 31.21 ± 5.99 %ID/g
Biodistribution, brain [4, 6]: 0.40 ± 0.09 %ID/g
Biodistribution, heart [4, 6]: 1.47 ± 0.31 %ID/g
Biodistribution, kidney [4, 6]: 3.89 ± 1.26 %ID/g
Biodistribution, large intestine [4, 6]: 13.25 ± 1.70 %ID/g
Biodistribution, liver [4, 6]: 14.48 ± 4.91 %ID/g
Biodistribution, lungs [4, 6]: 1.33 ± 0.28 %ID/g
Biodistribution, muscle [4, 6]: 1.55 ± 0.44 %ID/g
Biodistribution, small intestine [4, 6]: 36.08 ± 1.21 %ID/g
Biodistribution, spleen [4, 6]: 0.15 ± 0.06 %ID/g
Biodistribution, stomach [4, 6]: 3.41 ± 0.26 %ID/g
Biodistribution, urine [4, 6]: 12.93 ± 12.56 %ID/g
Biodistribution, blood ([4]; control (PR-) mice, mean ± SEM): 0.01 ± 0.000 %ID/g
Biodistribution, bone ([4]; control (PR-) mice, mean ± SEM): 15.37 ± 3.47 %ID/g
Biodistribution, brain ([4]; control (PR-) mice, mean ± SEM): 0.41 ± 0.09 %ID/g
Biodistribution, heart ([4]; control (PR-) mice, mean ± SEM): 1.40 ± 0.33 %ID/g
Biodistribution, kidney ([4]; control (PR-) mice, mean ± SEM): 4.02 ± 1.18 %ID/g
Biodistribution, large intestine ([4]; control (PR-) mice, mean ± SEM): 1.30 ± 0.07 %ID/g
Biodistribution, liver ([4]; control (PR-) mice, mean ± SEM): 6.19 ± 1.74 %ID/g
Biodistribution, lungs ([4]; control (PR-) mice, mean ± SEM): 1.28 ± 0.35 %ID/g
Biodistribution, muscle ([4]; control (PR-) mice, mean ± SEM): 0.91 ± 0.19 %ID/g
Biodistribution, ovary ([4]; control (PR-) mice, mean ± SEM): 1.32 ± 0.22 %ID/g
Biodistribution, small intestine ([4]; control (PR-) mice, mean ± SEM): 30.49 ± 3.05 %ID/g
Biodistribution, spleen ([4]; control (PR-) mice, mean ± SEM): 0.99 ± 0.28 %ID/g
Biodistribution, stomach ([4]; control (PR-) mice, mean ± SEM): 0.73 ± 0.17 %ID/g
Biodistribution, urine ([4]; control (PR-) mice, mean ± SEM): 10.94 ± 8.40 %ID/g
Stability after formulation [5]: 99.7%
